Experiments:
Assay type in all cases: in vivo
[1] = tested on: cocklebur (common cocklebur, Xanthium strumarium); test: Test E pre-/postemergence greenhouse test, plant response rating 0-100; conditions: Preemergence, scale 0 to 100
Method in brief: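 Seeds sown in silt loam soil received preemergence treatment with compound in a non-phytotoxic solvent mixture containing surfactant. Postemergence, plants at 2–18 cm (1- to 4-leaf stage) in peat/vermiculite medium were sprayed with the same formulation. Visual injury versus untreated controls was rated 0–100 after 14 to 21 days in the greenhouse.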

[2] = tested on: Russian thistle (Salsola kali); test: Test D postemergence controlled growth environment test, plant response rating 0-100
Source text: (§1) Seeds of plant species selected from bluegrass (annual bluegrass, Poa annua), blackgrass (Alopecurus myosuroides), canarygrass (Phalaris minor), chickweed (common chickweed, Stellaria media), galium (catchweed bedstraw, Galium aparine), downy bromegrass (Bromus tectorum), field violet (Viola arvensis), green foxtail (Setaria viridis), deadnettle (henbit deadnettle, Lamium amplexicaule), Italian ryegrass (Lolium multiflorum), kochia (Kochia scoparia), lambsquarters (Chenopodium album), oilseed rape (Brassica napus), pigweed (Amaranthus retroflexus), Russian thistle (Salsola kali), spring barley (Hordeum vulgare), spring wheat (Triticum aestivum), wild buckwheat (Polygonum convolvulus), wild mustard (Sinapis arvensis), wild oat (Avena fatua), windgrass (Apera spica-venti), winter barley (Hordeum vulgare), and winter wheat (Triticum aestivum) were planted in pots containing Redi-Earth® planting medium (Scotts Company, 14111 Scottslawn Road, Marysville, Ohio 43041) comprising spaghnum peat moss, vermiculite, wetting agent and starter nutrients and treated with postemergence applications of test chemicals formulated in a non-phytotoxic solvent mixture which included a surfactant. Plants ranged in height from 2 to 18 cm (1- to 4-leaf stage). Treated plants and controls were maintained in a controlled growth environment for 14 days after which time all species were compared to controls and visually evaluated. Plant response ratings, summarized in Table D, are based on a scale of 0 to 100 where 0 is no effect and 100 is complete control. A dash (-) response means no test result.

[3] = tested on: canarygrass (Phalaris minor); test: as above
Source text: as §1

[4] = tested on: deadnettle (henbit deadnettle, Lamium amplexicaule); test: as above
Source text: as §1

[5] = tested on: field violet (Viola arvensis); test: as above
Source text: as §1

[6] = tested on: galium (catchweed bedstraw, Galium aparine); test: as above
Source text: as §1

[7] = tested on: green foxtail (Setaria viridis); test: as above
Source text: as §1

[8] = tested on: kochia (Kochia scoparia); test: as above
Source text: as §1

[9] = tested on: pigweed (Amaranthus retroflexus); test: as above
Source text: as §1

[10] = tested on: spring wheat (Triticum aestivum); test: as above
Source text: as §1

[11] = tested on: wild buckwheat (Polygonum convolvulus); test: as above
Source text: as §1

[12] = tested on: wild oat (Avena fatua); test: as above
Source text: as §1

[13] = tested on: windgrass (Apera spica-venti); test: as above
Source text: as §1

[14] = tested on: winter wheat (Triticum aestivum); test: as above
Source text: as §1

Q: With `O=C(c1ccccc1)c1cn(S(=O)(=O)CCl)nc1-c1cc(Cl)cc(Cl)c1` [Compound 1] as the compound, how does the “Cocklebur plant response rating” value ([1]; 500 g ai/ha) read?
A: The value was 0.

Q: Which “Cocklebur plant response rating” value ([1]; 31 g ai/ha) does the source give for `O=C(c1ccccc1)c1cn(S(=O)(=O)C(F)(F)F)nc1-c1cc(Cl)cc(Cl)c1` [Compound 2] here?
A: Its value is 0.

Q: What about the “Cocklebur plant response rating” value ([1]; 62 g ai/ha) of the same compound?
A: Its value is 0.

Q: And the “Cocklebur plant response rating” value ([1]; 125 g ai/ha)?
A: The value was 0.

Q: What about the “Cocklebur plant response rating” value ([1]; 250 g ai/ha) of the same compound?
A: The value was 0.

Q: Which results are given for `O=C(c1ccccc1)c1cn(S(=O)(=O)CC(F)(F)F)nc1-c1cc(Cl)cc(Cl)c1` [Compound 3]?
A: Cocklebur plant response rating ([1]; 31 g ai/ha): 0; Cocklebur plant response rating ([1]; 250 g ai/ha): 0

Q: What does the source list for `O=C(c1ccccc1)c1cn(CO)nc1-c1cc(Cl)cc(Cl)c1` [Compound 15, [3-(3,5-dichlorophenyl)-1-(hydroxymethyl)-1H-pyrazol-4-yl]phenylmethanone]?
A: Cocklebur plant response rating ([1]; 31 g ai/ha): 0; Cocklebur plant response rating ([1]; 62 g ai/ha): 0; Cocklebur plant response rating ([1]; 125 g ai/ha): 0

Q: Which results are given for `Clc1cc(Cl)cc(-c2n[nH]cc2C(=NN2CCCC2)c2ccccc2)c1` [Compound 30, N-[[3-(3,5-dichlorophenyl)-1H-pyrazol-4-yl]phenylmethylene]-1-pyrrolidinamine]?
A: Plant response rating, Russian Thistle ([2]; 16 g ai/ha): 0; Plant response rating, Russian Thistle ([2]; 31 g ai/ha): 10; Plant response rating, Russian Thistle ([2]; 62 g ai/ha): 20; Plant response rating, Russian Thistle ([2]; 125 g ai/ha): 40; Plant response rating, Russian Thistle ([2]; 250 g ai/ha): 50; Plant response rating, Canarygrass ([3]; 16 g ai/ha): 0; Plant response rating, Canarygrass ([3]; 31 g ai/ha): 0; Plant response rating, Canarygrass ([3]; 62 g ai/ha): 0; Plant response rating, Canarygrass ([3]; 125 g ai/ha): 0; Plant response rating, Canarygrass ([3]; 250 g ai/ha): 10; Plant response rating, Deadnettle ([4]; 16 g ai/ha): 0; Plant response rating, Deadnettle ([4]; 31 g ai/ha): 0; Plant response rating, Deadnettle ([4]; 62 g ai/ha): 0; Plant response rating, Deadnettle ([4]; 125 g ai/ha): 10; Plant response rating, Deadnettle ([4]; 250 g ai/ha): 10; Plant response rating, Field Violet ([5]; 16 g ai/ha): 0; Plant response rating, Field Violet ([5]; 31 g ai/ha): 0; Plant response rating, Field Violet ([5]; 62 g ai/ha): 10; Plant response rating, Field Violet ([5]; 125 g ai/ha): 10; Plant response rating, Field Violet ([5]; 250 g ai/ha): 15; Plant response rating, Galium ([6]; 16 g ai/ha): 0; Plant response rating, Galium ([6]; 31 g ai/ha): 0; Plant response rating, Galium ([6]; 62 g ai/ha): 0; Plant response rating, Galium ([6]; 125 g ai/ha): 0; Plant response rating, Galium ([6]; 250 g ai/ha): 0; Plant response rating, Foxtail, Green ([7]; 16 g ai/ha): 0; Plant response rating, Foxtail, Green ([7]; 31 g ai/ha): 0; Plant response rating, Foxtail, Green ([7]; 62 g ai/ha): 0; Plant response rating, Foxtail, Green ([7]; 125 g ai/ha): 0; Plant response rating, Foxtail, Green ([7]; 250 g ai/ha): 0; Plant response rating, Kochia ([8]; 16 g ai/ha): 0; Plant response rating, Kochia ([8]; 31 g ai/ha): 10; Plant response rating, Kochia ([8]; 62 g ai/ha): 30; Plant response rating, Kochia ([8]; 125 g ai/ha): 40; Plant response rating, Kochia ([8]; 250 g ai/ha): 70; Plant response rating, Pigweed ([9]; 16 g ai/ha): 25; Plant response rating, Pigweed ([9]; 31 g ai/ha): 60; Plant response rating, Pigweed ([9]; 62 g ai/ha): 70; Plant response rating, Pigweed ([9]; 125 g ai/ha): 80; Plant response rating, Pigweed ([9]; 250 g ai/ha): 90; Plant response rating, Wheat, Spring ([10]; 16 g ai/ha): 0; Plant response rating, Wheat, Spring ([10]; 31 g ai/ha): 0; Plant response rating, Wheat, Spring ([10]; 62 g ai/ha): 0; Plant response rating, Wheat, Spring ([10]; 125 g ai/ha): 0; Plant response rating, Wheat, Spring ([10]; 250 g ai/ha): 0; Plant response rating, Buckwheat, Wild ([11]; 16 g ai/ha): 0; Plant response rating, Buckwheat, Wild ([11]; 31 g ai/ha): 0; Plant response rating, Buckwheat, Wild ([11]; 62 g ai/ha): 5; Plant response rating, Buckwheat, Wild ([11]; 125 g ai/ha): 15; Plant response rating, Buckwheat, Wild ([11]; 250 g ai/ha): 35; Plant response rating, Oat, Wild ([12]; 16 g ai/ha): 0; Plant response rating, Oat, Wild ([12]; 31 g ai/ha): 0; Plant response rating, Oat, Wild ([12]; 62 g ai/ha): 0; Plant response rating, Oat, Wild ([12]; 125 g ai/ha): 0; Plant response rating, Oat, Wild ([12]; 250 g ai/ha): 0; Plant response rating, Windgrass ([13]; 16 g ai/ha): 0; Plant response rating, Windgrass ([13]; 31 g ai/ha): 0; Plant response rating, Windgrass ([13]; 62 g ai/ha): 0; Plant response rating, Windgrass ([13]; 125 g ai/ha): 0; Plant response rating, Windgrass ([13]; 250 g ai/ha): 0; Plant response rating, Wheat, Winter ([14]; 16 g ai/ha): 0; Plant response rating, Wheat, Winter ([14]; 31 g ai/ha): 0; Plant response rating, Wheat, Winter ([14]; 62 g ai/ha): 0; Plant response rating, Wheat, Winter ([14]; 125 g ai/ha): 0; Plant response rating, Wheat, Winter ([14]; 250 g ai/ha): 90

Q: What does the source list for `C#CCn1cc(C(=O)c2ccccc2)c(-c2cc(Cl)cc(Cl)c2)n1` [Compound 39, [3-(3,5-dichlorophenyl)-1-(2-propyn-1-yl)-1H-pyrazol-4-yl]phenylmethanone]?
A: Plant response rating, Russian Thistle ([2]; 16 g ai/ha): 0; Plant response rating, Russian Thistle ([2]; 31 g ai/ha): 0; Plant response rating, Russian Thistle ([2]; 62 g ai/ha): 10; Plant response rating, Russian Thistle ([2]; 125 g ai/ha): 20; Plant response rating, Russian Thistle ([2]; 250 g ai/ha): 25; Plant response rating, Canarygrass ([3]; 16 g ai/ha): 0; Plant response rating, Canarygrass ([3]; 31 g ai/ha): 0; Plant response rating, Canarygrass ([3]; 62 g ai/ha): 0; Plant response rating, Canarygrass ([3]; 125 g ai/ha): 0; Plant response rating, Canarygrass ([3]; 250 g ai/ha): 0; Plant response rating, Deadnettle ([4]; 16 g ai/ha): 0; Plant response rating, Deadnettle ([4]; 31 g ai/ha): 0; Plant response rating, Deadnettle ([4]; 62 g ai/ha): 0; Plant response rating, Deadnettle ([4]; 125 g ai/ha): 0; Plant response rating, Deadnettle ([4]; 250 g ai/ha): 0; Plant response rating, Field Violet ([5]; 16 g ai/ha): 0; Plant response rating, Field Violet ([5]; 31 g ai/ha): 0; Plant response rating, Field Violet ([5]; 62 g ai/ha): 10; Plant response rating, Field Violet ([5]; 125 g ai/ha): 10; Plant response rating, Galium ([6]; 16 g ai/ha): 0; Plant response rating, Galium ([6]; 31 g ai/ha): 0; Plant response rating, Galium ([6]; 62 g ai/ha): 0; Plant response rating, Galium ([6]; 125 g ai/ha): 0; Plant response rating, Galium ([6]; 250 g ai/ha): 0; Plant response rating, Foxtail, Green ([7]; 16 g ai/ha): 0; Plant response rating, Foxtail, Green ([7]; 31 g ai/ha): 0; Plant response rating, Foxtail, Green ([7]; 62 g ai/ha): 0; Plant response rating, Foxtail, Green ([7]; 125 g ai/ha): 0; Plant response rating, Foxtail, Green ([7]; 250 g ai/ha): 10; Plant response rating, Kochia ([8]; 16 g ai/ha): 0; Plant response rating, Kochia ([8]; 31 g ai/ha): 0; Plant response rating, Kochia ([8]; 62 g ai/ha): 20; Plant response rating, Kochia ([8]; 125 g ai/ha): 10; Plant response rating, Kochia ([8]; 250 g ai/ha): 20; Plant response rating, Pigweed ([9]; 16 g ai/ha): 30; Plant response rating, Pigweed ([9]; 31 g ai/ha): 30; Plant response rating, Pigweed ([9]; 62 g ai/ha): 50; Plant response rating, Pigweed ([9]; 125 g ai/ha): 75; Plant response rating, Pigweed ([9]; 250 g ai/ha): 80; Plant response rating, Wheat, Spring ([10]; 16 g ai/ha): 0; Plant response rating, Wheat, Spring ([10]; 31 g ai/ha): 0; Plant response rating, Wheat, Spring ([10]; 62 g ai/ha): 0; Plant response rating, Wheat, Spring ([10]; 125 g ai/ha): 0; Plant response rating, Wheat, Spring ([10]; 250 g ai/ha): 0; Plant response rating, Buckwheat, Wild ([11]; 16 g ai/ha): 0; Plant response rating, Buckwheat, Wild ([11]; 31 g ai/ha): 0; Plant response rating, Buckwheat, Wild ([11]; 62 g ai/ha): 0; Plant response rating, Buckwheat, Wild ([11]; 125 g ai/ha): 10; Plant response rating, Buckwheat, Wild ([11]; 250 g ai/ha): 20; Plant response rating, Oat, Wild ([12]; 16 g ai/ha): 0; Plant response rating, Oat, Wild ([12]; 31 g ai/ha): 0; Plant response rating, Oat, Wild ([12]; 62 g ai/ha): 0; Plant response rating, Oat, Wild ([12]; 125 g ai/ha): 0; Plant response rating, Oat, Wild ([12]; 250 g ai/ha): 0; Plant response rating, Windgrass ([13]; 16 g ai/ha): 0; Plant response rating, Windgrass ([13]; 31 g ai/ha): 0; Plant response rating, Windgrass ([13]; 62 g ai/ha): 0; Plant response rating, Windgrass ([13]; 125 g ai/ha): 0; Plant response rating, Windgrass ([13]; 250 g ai/ha): 0; Plant response rating, Wheat, Winter ([14]; 16 g ai/ha): 0; Plant response rating, Wheat, Winter ([14]; 31 g ai/ha): 0; Plant response rating, Wheat, Winter ([14]; 62 g ai/ha): 0; Plant response rating, Wheat, Winter ([14]; 125 g ai/ha): 0; Plant response rating, Wheat, Winter ([14]; 250 g ai/ha): 0

Q: For `Cn1cc(C(=O)c2ccccc2)c(-c2cc(Cl)cc(Cl)c2)n1` [Compound 54, [3-(3,5-dichlorophenyl)-1-methyl-1H-pyrazol-4-yl]phenylmethanone], which “Cocklebur plant response rating” value ([1]; 125 g ai/ha) is on record?
A: The value was 0.

Q: And the “Cocklebur plant response rating” value ([1]; 250 g ai/ha)?
A: The value was 0.
